Source: patent US20190309272A1, “Genetically Modified Cell Lines Including a TP53 Modification and Methods of Use” (UNIVERSITY OF SOUTH CAROLINA, priority 2018, published 2019)
Where a name gives a salt, the structure may show the parent alone. Read-outs that look alike come from different tables or passages of the source.

Columns and labels:
Assay type in all cases: cell-based, Human
MCF7 TP53 KO 5.6 pool = test: Drug screening, resazurin, TP53 KO 5.6 pool
MCF7 TP53 KO 3.4 pool = test: Drug screening, resazurin, TP53 KO 3.4 pool
MCF7 WT Parental pool = test: Drug screening, resazurin, MCF7 wild type parental pool
[1] = ten-day drug treatment, 156.25 nM to 10 μM, resazurin fluorescence

## Nc1cccc2c1CN(C1CCC(=O)NC1=O)C2=O (stereo not drawn) [Lenalidomide]
MCF7 TP53 KO 5.6 pool; [1]
  TP53 KO 5.6 pool (AUC): 8.801
MCF7 TP53 KO 3.4 pool; [1]
  TP53 KO 3.4 pool (AUC): 8.782
MCF7 WT Parental pool; [1]
  MCF7 WT Parental pool (AUC): 8.724

## COc1cc([C@@H]2c3cc4c(cc3[C@@H](O[C@@H]3O[C@@H]5CO[C@@H](C)O[C@H]5[C@H](O)[C@H]3O)[C@H]3COC(=O)[C@H]23)OCO4)cc(OC)c1O [Etoposide]
MCF7 TP53 KO 5.6 pool; [1]
  TP53 KO 5.6 pool (AUC): 3.06
MCF7 TP53 KO 3.4 pool; [1]
  TP53 KO 3.4 pool (AUC): 2.818
MCF7 WT Parental pool; [1]
  MCF7 WT Parental pool (AUC): 2.93

## CC(C)Cn1cnc2c(N)nc3ccccc3c21 [Imiquimod]
MCF7 TP53 KO 5.6 pool; [1]
  TP53 KO 5.6 pool (AUC): 9.449
MCF7 TP53 KO 3.4 pool; [1]
  TP53 KO 3.4 pool (AUC): 9.359
MCF7 WT Parental pool; [1]
  MCF7 WT Parental pool (AUC): 9.496

## C=CC(=O)Nc1cc(Nc2nccc(-c3cn(C)c4ccccc34)n2)c(OC)cc1N(C)CCN(C)C [Osimertinib]
MCF7 TP53 KO 5.6 pool; [1]
  TP53 KO 5.6 pool (AUC): 4.044
MCF7 TP53 KO 3.4 pool; [1]
  TP53 KO 3.4 pool (AUC): 4.056
MCF7 WT Parental pool; [1]
  MCF7 WT Parental pool (AUC): 4.149

## O=C(c1ccc(OCCN2CCCCC2)cc1)c1c(-c2ccc(O)cc2)sc2cc(O)ccc12 [Raloxifene]
MCF7 TP53 KO 5.6 pool; [1]
  TP53 KO 5.6 pool (AUC): 6.562
MCF7 TP53 KO 3.4 pool; [1]
  TP53 KO 3.4 pool (AUC): 6.017
MCF7 WT Parental pool; [1]
  MCF7 WT Parental pool (AUC): 5.361

## NCCCNCCSP(=O)(O)O [Amifostine]
MCF7 TP53 KO 5.6 pool; [1]
  TP53 KO 5.6 pool (AUC): 9.73
MCF7 TP53 KO 3.4 pool; [1]
  TP53 KO 3.4 pool (AUC): 9.108
MCF7 WT Parental pool; [1]
  MCF7 WT Parental pool (AUC): 8.456

## COC(=O)C[C@](O)(CCCC(C)(C)O)C(=O)O[C@@H]1C(OC)=C[C@]23CCCN2CCc2cc4c(cc2[C@H]13)OCO4 [Omacetaxine Mepesuccinate]
MCF7 TP53 KO 5.6 pool; [1]
  TP53 KO 5.6 pool (AUC): 0.7717
MCF7 TP53 KO 3.4 pool; [1]
  TP53 KO 3.4 pool (AUC): 0.7692
MCF7 WT Parental pool; [1]
  MCF7 WT Parental pool (AUC): 0.7749

## Cc1ccc(Nc2nccc(N(C)c3ccc4c(C)n(C)nc4c3)n2)cc1S(N)(=O)=O [Pazopanib Hydrochloride]
MCF7 TP53 KO 5.6 pool; [1]
  TP53 KO 5.6 pool (AUC): 6.349
MCF7 TP53 KO 3.4 pool; [1]
  TP53 KO 3.4 pool (AUC): 6.259
MCF7 WT Parental pool; [1]
  MCF7 WT Parental pool (AUC): 6.767

## C[C@@H](CN1CC(=O)NC(=O)C1)N1CC(=O)NC(=O)C1 [Dexrazoxane]
MCF7 TP53 KO 5.6 pool; [1]
  TP53 KO 5.6 pool (AUC): 8.868
MCF7 TP53 KO 3.4 pool; [1]
  TP53 KO 3.4 pool (AUC): 8.753
MCF7 WT Parental pool; [1]
  MCF7 WT Parental pool (AUC): 8.317

## CNC(=O)c1ccc(N2C(=S)N(c3ccc(C#N)c(C(F)(F)F)c3)C(=O)C2(C)C)cc1F [Enzalutamide]
MCF7 TP53 KO 5.6 pool; [1]
  TP53 KO 5.6 pool (AUC): 8.634
MCF7 TP53 KO 3.4 pool; [1]
  TP53 KO 3.4 pool (AUC): 8.864
MCF7 WT Parental pool; [1]
  MCF7 WT Parental pool (AUC): 8.931

## CC[C@@]1(O)C(=O)OCc2c1cc1n(c2=O)Cc2cc3c(CN(C)C)c(O)ccc3nc2-1 [Topotecan Hydrochloride]
MCF7 TP53 KO 5.6 pool; [1]
  TP53 KO 5.6 pool (AUC): 0.8044
MCF7 TP53 KO 3.4 pool; [1]
  TP53 KO 3.4 pool (AUC): 0.7814
MCF7 WT Parental pool; [1]
  MCF7 WT Parental pool (AUC): 0.7919

## C1CN1c1nc(N2CC2)nc(N2CC2)n1 [Triethyleneme1amine]
MCF7 TP53 KO 5.6 pool; [1]
  TP53 KO 5.6 pool (AUC): 2.319
MCF7 TP53 KO 3.4 pool; [1]
  TP53 KO 3.4 pool (AUC): 2.224
MCF7 WT Parental pool; [1]
  MCF7 WT Parental pool (AUC): 2.223

## C/C=C1\NC(=O)[C@H]2CSSCC/C=C/[C@H](CC(=O)N[C@H](C(C)C)C(=O)N2)OC(=O)[C@H](C(C)C)NC1=O [Romidepsin]
MCF7 TP53 KO 5.6 pool
  TP53 KO 5.6 pool (AUC): 0.5264
MCF7 TP53 KO 3.4 pool
  TP53 KO 3.4 pool (AUC): 0.6551
MCF7 WT Parental pool
  MCF7 WT Parental pool (AUC): 0.5862

## O=P(O)(O)C(O)(Cn1ccnc1)P(=O)(O)O [Zoledronic Acid]
MCF7 TP53 KO 5.6 pool; [1]
  TP53 KO 5.6 pool (AUC): 9.417
MCF7 TP53 KO 3.4 pool; [1]
  TP53 KO 3.4 pool (AUC): 9.268
MCF7 WT Parental pool; [1]
  MCF7 WT Parental pool (AUC): 9.222

## CNC(=O)c1ccccc1Sc1ccc2c(/C=C/c3ccccn3)n[nH]c2c1 [Axitinib]
MCF7 TP53 KO 5.6 pool; [1]
  TP53 KO 5.6 pool (AUC): 3.786
MCF7 TP53 KO 3.4 pool; [1]
  TP53 KO 3.4 pool (AUC): 3.743
MCF7 WT Parental pool; [1]
  MCF7 WT Parental pool (AUC): 2.581

## CC(C)C[C@H](NC(=O)CNC(=O)c1cc(Cl)ccc1Cl)B(O)O [Ixazomib]
MCF7 TP53 KO 5.6 pool; [1]
  TP53 KO 5.6 pool (AUC): 0.8766
MCF7 TP53 KO 3.4 pool; [1]
  TP53 KO 3.4 pool (AUC): 0.7086
MCF7 WT Parental pool; [1]
  MCF7 WT Parental pool (AUC): 0.719

## COc1cc2c(Nc3ccc(Br)cc3F)ncnc2cc1OCC1CCN(C)CC1 [Vandetanib]
MCF7 TP53 KO 5.6 pool; [1]
  TP53 KO 5.6 pool (AUC): 3.022
MCF7 TP53 KO 3.4 pool; [1]
  TP53 KO 3.4 pool (AUC): 2.831
MCF7 WT Parental pool; [1]
  MCF7 WT Parental pool (AUC): 2.871

## Cn1c(CCCC(=O)O)nc2cc(N(CCCl)CCCl)ccc21 [Bendamustine Hydrochloride]
MCF7 TP53 KO 5.6 pool
  TP53 KO 5.6 pool (AUC): 10.23
MCF7 TP53 KO 3.4 pool
  TP53 KO 3.4 pool (AUC): 9.503
MCF7 WT Parental pool
  MCF7 WT Parental pool (AUC): 9.021

## O=c1[nH]c(=O)n([C@H]2C[C@H](O)[C@@H](CO)O2)cc1F [Floxuridine]
MCF7 TP53 KO 5.6 pool; [1]
  TP53 KO 5.6 pool (AUC): 1.997
MCF7 TP53 KO 3.4 pool; [1]
  TP53 KO 3.4 pool (AUC): 1.85
MCF7 WT Parental pool; [1]
  MCF7 WT Parental pool (AUC): 2.391

## c1cc(CN2CCCNCCNCCCNCC2)ccc1CN1CCCNCCNCCCNCC1 [Plerixafor]
MCF7 TP53 KO 5.6 pool; [1]
  TP53 KO 5.6 pool (AUC): 8.524
MCF7 TP53 KO 3.4 pool; [1]
  TP53 KO 3.4 pool (AUC): 8.893
MCF7 WT Parental pool; [1]
  MCF7 WT Parental pool (AUC): 9

## CN1CCN(C(=O)c2ccc3cc(CCNc4ncnc5ccc(C#N)cc45)ccc3c2)CC1 [SenexinB]
MCF7 TP53 KO 5.6 pool; [1]
  TP53 KO 5.6 pool (AUC): 6.954
MCF7 TP53 KO 3.4 pool; [1]
  TP53 KO 3.4 pool (AUC): 6.869
MCF7 WT Parental pool; [1]
  MCF7 WT Parental pool (AUC): 5.203

## CNC(=O)c1cc(Oc2ccc(NC(=O)Nc3ccc(Cl)c(C(F)(F)F)c3)c(F)c2)ccn1 [Regorafenib]
MCF7 TP53 KO 5.6 pool; [1]
  TP53 KO 5.6 pool (AUC): 5.25
MCF7 TP53 KO 3.4 pool; [1]
  TP53 KO 3.4 pool (AUC): 5.541
MCF7 WT Parental pool; [1]
  MCF7 WT Parental pool (AUC): 3.995
